The results in this text go back to ChEMBL document CHEMBL4828763, “Discovery of Potent and Selective CDK9 Degraders for Targeting Transcription Regulation in Triple-Negative Breast Cancer” (J Med Chem, 2021).

The source made the active and inactive calls. The calls are words filed in the database; no cut-off is given here.

Series [1] relates to MDA-MB-468. In words: Growth inhibition of human MDA-MB-468 cells assessed as cell viability measured after 4 days by WST8 assay. It counts as functional, cell-based. The settings on record: MDA-MB-468, 96 h. (In general: Formazan colour is commonly taken as a measure of viable cells.)
Series [2] has as its system BT-549. Put plainly: Growth inhibition of human BT-549 cells assessed as cell viability measured after 4 days by WST8 assay. The format is functional, cell-based. As to conditions: BT-549, 96 h.
The subject of series [3] is MDA-MB-231. In words: Growth inhibition of human MDA-MB-231 cells assessed as cell viability measured after 4 days by WST8 assay. The format is functional, cell-based. The settings on record: MDA-MB-231, 96 h.
In series [4] the target is T1, Protein cereblon/Cyclin-dependent kinase 9 (Homo sapiens) (UniProt P50750+Q96SW2). Put plainly: Protac activity at CRBN/CDK9 in human MDA-MB-231 cells assessed as induction of degradation of CDK9 at 500 nM incubated for 8 hrs by Western blot analysis. The format is cell-based. A general note: In western blotting, separated proteins are transferred to a membrane and probed.
T1 sequence (P50750 whole entry, looked up): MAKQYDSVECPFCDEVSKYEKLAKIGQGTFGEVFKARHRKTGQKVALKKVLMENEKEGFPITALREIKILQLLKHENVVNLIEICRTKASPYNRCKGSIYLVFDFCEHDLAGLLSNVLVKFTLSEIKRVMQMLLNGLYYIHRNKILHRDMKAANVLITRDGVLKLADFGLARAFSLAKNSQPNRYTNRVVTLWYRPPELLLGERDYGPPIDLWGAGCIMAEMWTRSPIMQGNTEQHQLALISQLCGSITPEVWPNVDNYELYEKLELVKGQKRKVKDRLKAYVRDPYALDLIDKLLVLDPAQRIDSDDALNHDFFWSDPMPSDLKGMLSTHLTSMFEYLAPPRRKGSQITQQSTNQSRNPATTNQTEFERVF
T1 sequence (Q96SW2 whole entry, looked up): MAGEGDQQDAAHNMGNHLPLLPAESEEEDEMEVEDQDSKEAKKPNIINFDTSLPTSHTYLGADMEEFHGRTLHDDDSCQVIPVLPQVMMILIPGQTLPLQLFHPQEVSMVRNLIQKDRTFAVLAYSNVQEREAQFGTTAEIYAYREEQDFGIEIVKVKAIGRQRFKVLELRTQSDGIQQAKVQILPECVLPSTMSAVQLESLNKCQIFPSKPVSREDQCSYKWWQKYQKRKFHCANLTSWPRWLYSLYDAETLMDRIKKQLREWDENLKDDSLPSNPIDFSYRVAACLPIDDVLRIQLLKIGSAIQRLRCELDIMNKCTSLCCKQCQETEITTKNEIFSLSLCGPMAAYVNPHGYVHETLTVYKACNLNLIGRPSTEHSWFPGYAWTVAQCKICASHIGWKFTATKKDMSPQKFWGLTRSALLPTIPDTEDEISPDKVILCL

Series [5] concerns the target T1, Protein cereblon/Cyclin-dependent kinase 9 (Homo sapiens). In words: Protac activity at CRBN/CDK9 in human MDA-MB-231 cells assessed as induction of degradation of CDK9 at 500 nM measured after 2 hrs by Western blot analysis. It counts as cell-based.
For series [6] the target is unchanged. Put plainly: Protac activity at CRBN/CDK9 in human MDA-MB-231 cells assessed as induction of degradation of CDK9 measured after 4 to 8 hrs by Western blot analysis. It counts as cell-based. The settings on record: dose 0.01-2.5 µM, time 4-8 hrs.
The target is the same in series [7]. Put plainly: Protac activity at CRBN/CDK9 in human MDA-MB-231 cells assessed as induction of degradation of CDK9 pretreated with compound 44 at 500 nM incubated for 8 hrs by Western blot analysis. It counts as cell-based.
Series [8] shares this target. Put plainly: Protac activity at CRBN/CDK9 in human MDA-MB-231 cells assessed as induction of degradation of CDK9 pretreated with thalidomide at 500 nM incubated for 8 hrs by Western blot analysis. It counts as cell-based.
Series [9] shares this target. In words: Protac activity at CRBN/CDK9 in human MDA-MB-231 cells assessed as induction of degradation of CDK9 pretreated with PR171 at 500 nM incubated for 8 hrs by Western blot analysis. It counts as cell-based.
Series [10] has the same target. Put plainly: Protac activity at CRBN/CDK9 in human MDA-MB-231 cells assessed as induction of degradation of CDK9 pretreated with MLN4924 at 500 nM incubated for 8 hrs by Western blot analysis. It counts as cell-based.
Series [11] deals with Protein cereblon/Cyclin-dependent kinase 1 (Homo sapiens) (UniProt P06493+Q96SW2). Put plainly: Protac activity at CRBN/CDK1 in human MDA-MB-231 cells assessed as induction of degradation of CDK1 at 0.01 to 2.5 uM incubated for 4 to 8 hrs by Western blot analysis. The settings on record: dose 0.01-2.5 µM, time 4-8 hrs. It counts as cell-based.
Sequence of Protein cereblon/Cyclin-dependent kinase 1 (Homo sapiens) (P06493 whole entry, looked up): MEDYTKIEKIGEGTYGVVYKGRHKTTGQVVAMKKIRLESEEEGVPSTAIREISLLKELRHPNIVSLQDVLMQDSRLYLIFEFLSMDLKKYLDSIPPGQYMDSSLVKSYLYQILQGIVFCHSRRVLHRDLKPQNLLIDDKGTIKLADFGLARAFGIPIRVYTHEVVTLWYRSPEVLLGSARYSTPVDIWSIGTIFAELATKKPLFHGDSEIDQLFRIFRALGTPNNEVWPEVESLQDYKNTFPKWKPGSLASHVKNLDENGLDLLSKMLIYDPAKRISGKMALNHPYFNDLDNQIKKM
Sequence of Protein cereblon/Cyclin-dependent kinase 1 (Homo sapiens) (Q96SW2 whole entry, looked up): as the sequence (Q96SW2 whole entry, looked up) above
The target in series [12] is Protein cereblon/Cyclin-dependent kinase 2 (Homo sapiens) (UniProt P24941+Q96SW2). Put plainly: Protac activity at CRBN/CDK2 in human MDA-MB-231 cells assessed as induction of degradation of CDK2 at 0.01 to 2.5 uM incubated for 4 to 8 hrs by Western blot analysis. It counts as cell-based. As to conditions: dose 0.01-2.5 µM, time 4-8 hrs.
For series [13], the target named is Protein cereblon/Cyclin-dependent kinase 4 (Homo sapiens) (UniProt P11802+Q96SW2). In words: Protac activity at CRBN/CDK4 in human MDA-MB-231 cells assessed as induction of degradation of CDK4 at 0.01 to 2.5 uM incubated for 4 to 8 hrs by Western blot analysis. The format is cell-based. The settings on record: dose 0.01-2.5 µM, time 4-8 hrs.
Sequence of Protein cereblon/Cyclin-dependent kinase 4 (Homo sapiens) (P11802 2-303 limits assumed): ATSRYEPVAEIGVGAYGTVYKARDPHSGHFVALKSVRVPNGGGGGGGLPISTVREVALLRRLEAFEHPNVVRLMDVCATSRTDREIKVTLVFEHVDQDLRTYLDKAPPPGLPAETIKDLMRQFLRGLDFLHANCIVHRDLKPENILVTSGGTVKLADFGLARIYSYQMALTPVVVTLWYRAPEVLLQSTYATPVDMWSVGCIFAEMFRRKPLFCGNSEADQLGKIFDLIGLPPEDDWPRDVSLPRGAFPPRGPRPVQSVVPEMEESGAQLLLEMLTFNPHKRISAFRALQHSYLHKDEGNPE
Sequence of Protein cereblon/Cyclin-dependent kinase 4 (Homo sapiens) (Q96SW2 whole entry partner): as the sequence (Q96SW2 whole entry, looked up) above
Series [14] concerns the target Protein cereblon/Cyclin-dependent kinase 5 (Homo sapiens) (UniProt Q00535+Q96SW2). In words: Protac activity at CRBN/CDK5 in human MDA-MB-231 cells assessed as induction of degradation of CDK5 at 0.01 to 2.5 uM incubated for 4 to 8 hrs by Western blot analysis. It counts as cell-based. As to conditions: dose 0.01-2.5 µM, time 4-8 hrs.
Series [15] has as its target Protein cereblon/Cyclin-dependent kinase 6 (Homo sapiens) (UniProt Q00534+Q96SW2). In words: Protac activity at CRBN/CDK6 in human MDA-MB-231 cells assessed as induction of degradation of CDK6 at 0.01 to 2.5 uM incubated for 4 to 8 hrs by Western blot analysis. The settings on record: dose 0.01-2.5 µM, time 4-8 hrs. The format is cell-based.
Series [16] deals with Protein cereblon/Cyclin-dependent kinase 7 (Homo sapiens) (UniProt P50613+Q96SW2). Put plainly: Protac activity at CRBN/CDK7 in human MDA-MB-231 cells assessed as induction of degradation of CDK7 at 0.01 to 2.5 uM incubated for 4 to 8 hrs by Western blot analysis. It counts as cell-based. As to conditions: dose 0.01-2.5 µM, time 4-8 hrs.
Sequence of Protein cereblon/Cyclin-dependent kinase 7 (Homo sapiens) (P50613 whole entry, looked up): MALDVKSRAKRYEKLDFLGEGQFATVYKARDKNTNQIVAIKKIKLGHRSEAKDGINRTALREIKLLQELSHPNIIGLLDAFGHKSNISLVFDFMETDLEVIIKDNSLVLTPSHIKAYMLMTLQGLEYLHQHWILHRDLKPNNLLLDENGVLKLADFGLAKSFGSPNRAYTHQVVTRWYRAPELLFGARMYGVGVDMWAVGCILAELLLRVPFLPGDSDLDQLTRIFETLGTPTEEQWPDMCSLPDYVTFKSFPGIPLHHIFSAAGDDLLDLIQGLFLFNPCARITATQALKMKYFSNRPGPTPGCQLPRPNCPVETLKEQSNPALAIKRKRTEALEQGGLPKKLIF
Sequence of Protein cereblon/Cyclin-dependent kinase 7 (Homo sapiens) (Q96SW2 whole entry, looked up): as the sequence (Q96SW2 whole entry, looked up) above
The test system of series [17] is MDA-MB-231. In words: Downregulation of CDK9 mRNA expression in human MDA-MB-231 cells at 0.5 uM incubated for 4 hrs by RNA-seq analysis. The format is functional, cell-based.
Series [18] can be described thus: Downregulation of MCL1 gene expression in human MDA-MB-231 cells at 0.5 uM incubated for 4 hrs by quantitative RT-PCR based gene set enrichment analysis relative to control. It counts as functional.
The nature of series [19]: Downregulation of MYC gene expression in human MDA-MB-231 cells at 0.5 uM incubated for 4 hrs by quantitative RT-PCR based gene set enrichment analysis relative to control. It counts as functional.
The subject of series [20] is MDA-MB-231. Put plainly: Induction of apoptosis in human MDA-MB-231 cells assessed as apoptotic cells at 10 nM incubated for 48 hrs by Annexin V-FITC/PI analysis (reference value: 4.85%). It counts as functional.
The subject of series [21] is MDA-MB-231. In words: Induction of apoptosis in human MDA-MB-231 cells assessed as apoptotic cells at 100 nM incubated for 48 hrs by Annexin V-FITC/PI analysis (reference value: 4.85%). The format is functional.
Series [22] has as its system MDA-MB-231. In words: Induction of apoptosis in human MDA-MB-231 cells assessed as apoptotic cells at 500 nM incubated for 48 hrs by Annexin V-FITC/PI analysis (reference value: 4.85%). It counts as functional.
A short description of series [23]: Solubility of the compound. The format is physicochemical.
The target in series [24] is Protein cereblon/Eukaryotic peptide chain release factor GTP-binding subunit ERF3A (Homo sapiens) (UniProt Q96SW2+P15170). Put plainly: Protac activity at CRBN/GSPT1 in human MDA-MB-231 cells assessed as induction of degradation of GSPT1 incubated for 4 to 8 hrs by Western blot analysis. The format is cell-based. The settings on record: time 4-8 hrs.
Sequence of Protein cereblon/Eukaryotic peptide chain release factor GTP-binding subunit ERF3A (Homo sapiens) (P15170 whole entry, looked up): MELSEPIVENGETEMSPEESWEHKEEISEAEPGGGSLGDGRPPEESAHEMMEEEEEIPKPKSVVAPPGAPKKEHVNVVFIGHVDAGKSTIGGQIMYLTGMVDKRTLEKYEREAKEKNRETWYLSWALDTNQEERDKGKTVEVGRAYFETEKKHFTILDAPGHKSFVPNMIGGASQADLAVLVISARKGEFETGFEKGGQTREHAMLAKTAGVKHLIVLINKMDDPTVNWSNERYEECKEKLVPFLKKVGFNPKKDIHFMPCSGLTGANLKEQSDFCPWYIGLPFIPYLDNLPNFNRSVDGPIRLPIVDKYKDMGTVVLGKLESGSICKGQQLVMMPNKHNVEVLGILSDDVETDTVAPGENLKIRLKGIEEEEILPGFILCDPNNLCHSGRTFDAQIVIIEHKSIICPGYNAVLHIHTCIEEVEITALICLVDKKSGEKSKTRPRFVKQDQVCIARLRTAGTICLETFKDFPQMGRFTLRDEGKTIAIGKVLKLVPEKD
Sequence of Protein cereblon/Eukaryotic peptide chain release factor GTP-binding subunit ERF3A (Homo sapiens) (Q96SW2 whole entry, looked up): as the sequence (Q96SW2 whole entry, looked up) above
Series [25] relates to Tumour. In words: Induction of CDK9 degradation in tumor of human MDA-MB-231 cells xenografted in BALB/c mouse model at 0.15 mM intratumoral injection measured after 16 hrs by Western blot analysis relative to control. It counts as functional, Neoplasm. On the technique in general: Xenograft models place foreign cells or tissue in a host animal.
The test system of series [26] is Tumour. In words: Induction of CDK7 degradation in tumor of human MDA-MB-231 cells xenografted in BALB/c mouse model at 0.15 mM intratumoral injection measured after 16 hrs by Western blot analysis relative to control. It counts as functional, tissue-based. The settings on record: Neoplasm.

The IC50 is the concentration at which inhibition is half-maximal. As a reminder, the inhibition is the relative decrease from the control value, in per cent.

Sequence of Protein cereblon/Cyclin-dependent kinase 5 (Homo sapiens) (Q00535 whole entry, looked up): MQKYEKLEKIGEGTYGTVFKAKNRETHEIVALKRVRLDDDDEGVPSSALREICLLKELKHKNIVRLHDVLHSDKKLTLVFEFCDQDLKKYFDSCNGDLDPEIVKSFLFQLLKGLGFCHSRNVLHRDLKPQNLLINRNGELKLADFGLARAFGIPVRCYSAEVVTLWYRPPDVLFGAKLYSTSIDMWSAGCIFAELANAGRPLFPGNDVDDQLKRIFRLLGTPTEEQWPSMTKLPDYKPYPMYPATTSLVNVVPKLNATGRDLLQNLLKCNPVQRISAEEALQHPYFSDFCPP
Sequence of Protein cereblon/Cyclin-dependent kinase 5 (Homo sapiens) (Q96SW2 whole entry, looked up): as the sequence (Q96SW2 whole entry, looked up) above
Sequence of Protein cereblon/Cyclin-dependent kinase 6 (Homo sapiens) (Q00534 whole entry, looked up): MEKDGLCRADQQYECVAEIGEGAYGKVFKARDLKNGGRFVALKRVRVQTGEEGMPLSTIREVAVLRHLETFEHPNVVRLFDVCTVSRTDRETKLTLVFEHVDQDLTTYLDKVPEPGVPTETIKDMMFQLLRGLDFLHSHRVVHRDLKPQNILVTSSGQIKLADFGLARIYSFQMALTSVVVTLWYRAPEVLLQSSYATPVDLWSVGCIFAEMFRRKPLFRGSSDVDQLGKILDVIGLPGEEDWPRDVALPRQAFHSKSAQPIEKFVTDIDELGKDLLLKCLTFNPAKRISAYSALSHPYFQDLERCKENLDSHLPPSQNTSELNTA
Sequence of Protein cereblon/Cyclin-dependent kinase 6 (Homo sapiens) (Q96SW2 whole entry, looked up): as the sequence (Q96SW2 whole entry, looked up) above

Turning to `CC(C)c1cnn2c(NCc3ccc(NC(=O)CCCCCCCOc4cccc5c4C(=O)N(C4CCC(=O)NC4=O)C5=O)cc3)nc(OC3CCN(C)CC3)nc12` (configuration not stated), the IC50 in series [1] was 0.066 µM; in series [2] it was 0.048 µM; in [3], 0.051 µM. For the same compound, the outcome in [4] was Active. Also, the Activity was 100% in series [5]; “Dose-Dependent Effect” in series [6]; 6.39% in series [20]; 10.48% in series [21]; 26.49% in series [22]; 26% in series [25]. Besides, the result in series [7], in [8], in series [9], in series [10], in [11] and in series [12] was inactive. For the same compound, the result in series [13], in series [14], in series [15], in [16], in [17] and in [24] was inactive. Further, the result in series [26] was inactive. For the same compound, the results for the inhibition at 0.5 µM in series [18] and in [19] were 59.6% and 75.3%, respectively. In addition, the solubility entry in series [23] was “Insoluble”.
Take `CC(C)c1cnn2c(NCc3ccc(NC(=O)CCCCCCCOc4cccc5c4CN(C4CCC(=O)NC4=O)C5=O)cc3)nc(OC3CCN(C)CC3)nc12` (configuration not stated): the IC50 was found to be 0.104 µM in series [1], 0.04 µM in series [2] and 0.072 µM in [3]. For the same compound, the result in series [4] was Active.
Take `CC(C)c1cnn2c(NCc3ccc(NC(=O)CCCCCCOc4cccc5c4CN(C4CCC(=O)NC4=O)C5=O)cc3)nc(OC3CCN(C)CC3)nc12` (configuration not stated): the figures for the IC50 in [1], in series [2] and in [3] were 0.53 µM, 0.47 µM and 0.39 µM, respectively. The result in [4] was Active.
Turning to `CC(C)c1cnn2c(NCc3ccc(NC(=O)CCCCCCOc4cccc5c4C(=O)N(C4CCC(=O)NC4=O)C5=O)cc3)nc(OC3CCN(C)CC3)nc12` (configuration not stated), the IC50 in [1] came out at 0.18 µM; in series [2], 0.17 µM; in series [3], 0.26 µM. For the same compound, the result in series [4] was Active.
In the case of `CC(C)c1cnn2c(NCc3ccc(NC(=O)CCCCCCCCOc4cccc5c4C(=O)N(C4CCC(=O)NC4=O)C5=O)cc3)nc(OC3CCN(C)CC3)nc12` (configuration not stated), the IC50 in [1] was found to be 0.12 µM; in series [2], 0.12 µM; in [3], 0.13 µM. In addition, the result in series [4] was Active.
